Assay results published in US12070464B2, “Methods of treating myeloproliferative disorders” (priority 2019, dated 2024).

Tests used:
[1] = test system: CD34+ cells isolated from healthy donor bone marrow; assay: Megakaryocyte differentiation, single agent, 14 days (FACS); type: cell-based; conditions: FIG. 2
Experimental: The effects of Compound 1 on megakaryocyte differentiation and proliferation were evaluated using CD34+ cells isolated from healthy donor bone marrow (data on file). The CD34+cells were grown in megakaryocyte differentiation serum-free stem cell differentiation base medium with a megakaryocyte-driving cytokine cocktail for 14 days with DMSO or Compound 1 at concentrations ranging from 3 nM to 500 nM. The cells were then stained for CD34 (progenitor marker), CD45 (leukocyte marker) and CD41a (mature megakaryocyte marker) and assessed by FACS for viability and marker expression. CD41a expression and cell size were used as markers of megakaryocyte differentiation. […] The shift from high to low CD41a expression began at approximately 50 nM, with pronounced effects observed at 200 to 500 nM, as shown in FIG. 2.

[2] = test system: patients with myelofibrosis; assay: Initial human clinical data set, four patients (combination and monotherapy arms); type: in vivo
Text: Two myelofibrosis patients to enroll (Patients 245 and 246) received Compound 1 in combination with ruxolitinib and received 18 treatment cycles (11 months of treatment). The other two patients to enroll (Patients 247 and 248) received 10 cycles of Compound 1 as monotherapy (6 months of treatment). […] One of the patients who was transfusion dependent at study entry became transfusion independent (defined as >12 weeks without the need for a red blood cell (RBC) transfusion. Indeed, 7 months had elapsed since their last transfusion.
All four patients experienced an increase in their hemoglobin levels with multiple treatment cycles with Compound 1. In addition, one of the patients who entered the study with uncontrolled thrombocytosis (baseline platelets were 895×10^9/L) experienced a normalization of their platelet counts within the first month of monotherapy treatment with Compound 1. The patient's platelet counts remained normal for more than 20 weeks. This patient's thrombocytosis was also accompanied by severe headaches requiring multiple hospital admission. Following treatment with Compound 1, however, the patient's headaches were resolved. Brief narratives for all four patients treated for at least 6 months are presented below.
At entry into the study with Compound 1, their spleen volume by MRI was 1404 cc and was 12 cm by palpation. The patient presented with early satiety, night sweats, and dyspnea at the start of the study. […] The lowest spleen volume by MRI was 1144 cc, a 19% reduction, at the 6-month MM. The dose of ruxolitinib was reduced on Cycle 10 to 7.5 mg BID to address decreasing platelet count.
When Patient 246 initiated combination treatment with Compound 1 125 mg QD and ruxolitinib 10 mg BID their spleen volume was 607 cc by MRI and 2 cm by palpation and they required regular transfusions (2 units of RBC every 3-4 weeks).
The patient also presented with uncontrolled thrombocytosis at study entry (platelet count of 895×10^9/L at baseline) despite hydroxyurea. In addition, the patient had experienced persistent and debilitating headaches that required multiple hospital admissions for pain control. Their platelets were normalized after receiving their first two weeks of Compound 1 monotherapy (183 x10^9/L) and have remained within the normal range for the remainder of the time they have been on study (see FIG. 6). Within 2 months on Compound 1 monotherapy, the patient's severe headaches had resolved; their night sweats were less frequent; and a 37% reduction in symptoms was assessed by the Myeloproliferative Neoplasm Symptom (MNS) score. Their ECOG performance score decreased from 2 to 1 after two treatment cycles with CPI-0610 and a 25% decrease in spleen volume (640 cc) was assessed by MRI after 8 treatment cycles, the most recent measurement.
Their constitutional symptoms at study entry included fatigue, early satiety, and difficulty concentrating. […] The patient was reinitiated with a reduced Compound 1 dose of 175 mg at the beginning of Cycle 2, which has been tolerated for the remaining time on study (>6 months). While the patient's spleen has shown minimal change through palpation a spleen volume reduction of 11% (1023 cc) was measured by MRI after 3 months on treatment with Compound 1. Their MNS score improved 19% after 2 months on the 175 mg QD dose and after 6 months of Compound 1 treatment their bone marrow fibrosis grade decreased from MF-2 at baseline to MF-1 based on a local pathologist's assessment.

[3] = test system: JAK inhibitor treatment naive myelofibrosis patients; type: in vivo, human
Experimental: A Phase 2 study of Compound 1 in subjects with myelofibrosis (MF) was conducted. Three treatment arms were studied:
Arm 3—combination treatment with Compound 1 and Rux in patients (pts) who have not previously been administered a JAK inhibitor, i.e., JAK inhibitor treatment naive. In this arm, key eligibility criteria of included JAKi naive myelofibrosis (MF) patients (pts) with Dynamic International Prognostic Scoring (DIPSS) score int-1 or higher, ECOG performance status ≤2, platelet counts (PLT) ≥100×109/L, peripheral blood blast count <10%, anemia (hemoglobin <10 g/dL), ≥5 cm palpable spleen, ≥2 symptoms measurable (score ≥3) or a total symptom score (c using the MFSAF v4.0. Primary endpoint: spleen volume response (SVR); key secondary endpoints: change in TSS, safety and PK; additional endpoints: changes in proinflammatory cytokine (Ck) levels, BM morphology and mutant allele burden.
The starting dose of Compound 1 was 125 mg given orally, once daily for 2 weeks on/1 week off in a 21-day dosing cycle. Two separate time points for data analysis occurred for at least Arms 1 and 2 and are discussed below: one at approximately 12 weeks of treatment (first assessment of spleen volume by MRI or CT and every 12 weeks thereafter) and another at approximately 24 weeks of treatment (first assessment of bone marrow biopsy and every 24 weeks thereafter). Patients were added to the study following the first time point.
Demographics and results are as follows: Baseline median age: 71 years (52-76), gender: 8 male (72.7%), ECOG ≤1: 10 (90.9%) patients, primary MF: 8 (72.7%) patients, DIPSS score: int-1/int-2/high: 2/7/2 patients, median platelet: 368×109/L (112-951), 9 (81.8%) patients with hemoglobin <10 g/dL, median spleen volume: 1379 cc (580-2807), median TSS: 11.8 (4.1-17), driver mutations: 11 (100%) with ≥1 JAK2/MPL/CALR mutations, HMR (high molecular risk) mutations: 6 […] patients, and ≥3 mutations: 4 (36%) patients. […] See FIG. 9, where * is data post cut off-date.

[4] = expanded population n=15, at least 12 weeks, FIG. 16

Cc1noc2c1-c1ccccc1C(c1ccc(Cl)cc1)=N[C@H]2CC(N)=O [Compound 1, 2-((4S)-6-(4-chlorophenyl)-1-methyl-4H-benzo[c]isoxazolo[4,5-e]azepin-4-yl)acetamide]
concentration at which shift from high to low CD41a expression began [1]: approximately 50 nM
spleen volume reduction ([2]; Patient 245, 6-month MRI, with ruxolitinib): 19%
lowest spleen volume by MRI ([2]; Patient 245, 6-month MRI, with ruxolitinib, 1404 cc at entry): 1144 cc
spleen size ([2]; Patient 245, after 4 weeks of therapy with Compound 1 and ruxolitinib, 12 cm before): 5 cm
spleen by palpation ([2]; Patient 245, within 4 months, Compound 1 125 mg QD and ruxolitinib 15 mg BID, 12 cm at entry): 5 cm
time to transfusion independence ([2]; Patient 246, Compound 1 125 mg QD titrated to 175 mg QD and ruxolitinib 10 mg BID, TI = >12 weeks without transfusion and hemoglobin >8 g/dL): ≤ 7 months
reduction in spleen volume ([2]; Patient 246, by Cycle 12, with ruxolitinib): 37%
spleen volume ([2]; Patient 246, by Cycle 12, with ruxolitinib, 607 cc at start): 380 cc
most recent hemoglobin measurement ([2]; Patient 246, with ruxolitinib): 10.9 g/dL
decrease in spleen volume by MRI ([2]; Patient 247, after 8 treatment cycles, monotherapy): 25%
spleen volume by MRI ([2]; Patient 247, after 8 treatment cycles, monotherapy, 858 cc at entry): 640 cc
platelets ([2]; Patient 247, after first two weeks of monotherapy, 895×10^9/L at baseline): 1.83e+11 L⁻¹
ECOG performance score ([2]; Patient 247, after two treatment cycles, from 2, monotherapy): 1
reduction in symptoms by Myeloproliferative Neoplasm Symptom (MNS) score ([2]; Patient 247, within 2 months, monotherapy): 37%
time reduced dose has been tolerated ([2]; Patient 248, 175 mg from Cycle 2): > 6 months
MNS score improvement ([2]; Patient 248, after 2 months on 175 mg QD): 19%
spleen volume reduction by MRI ([2]; Patient 248, after 3 months, monotherapy): 11%
spleen volume by MRI ([2]; Patient 248, after 3 months, monotherapy, 1148 cc at entry): 1023 cc
hemoglobin level after treatment ([2]; from about 8 g/dl, FIG. 5): about 10.9 g/dl
tolerability of starting dose ([2]; human, in vivo): did not tolerate
time elapsed since last transfusion ([2]; patient who was transfusion dependent at study entry): 7 months
time platelet counts remained normal ([2]; patient with uncontrolled thrombocytosis (Patient 247), monotherapy): more than 20 weeks
hemoglobin level after treatment ([2]; patients 247 and 248, from about 8 g/dL): about 11.5 g/dL
patients achieving ≥50% improvement in TSS ([3]; 4 patients on treatment for ≥12 weeks, with ruxolitinib): 100%
patients achieving ≥35% spleen volume reduction ([3]; 4 patients on treatment for ≥12 weeks, with ruxolitinib, FIG. 9): 100%
patients who had a TSS of ≥10 ([3]; expanded population n=15, FIG. 17): about 71%
patients with overall improvement in PGIC ([3]; expanded population n=15, FIG. 18): About 80%
SVR, average [3, 4]: about −49.7%
patients achieving ≥35% SVR [3, 4]: About 80%
DLTs and grade ≥3 thrombocytopenia ([3]; human, in vivo): no DLTs or grade ≥3 thrombocytopenia
most common TEAE observed in ≥2 patients ([3]; human, in vivo): anemia (1 grade 3), fatigue (all ≤grade 2), and non-cumulative reversible thrombocytopenia (all ≤grade 2)
